Results on 28 compounds are retold here after US10011573B2, “Human androgen receptor DNA-binding domain (DBD) compounds as therapeutics and methods for their use” (The University of British Columbia, priority 2014, dated 2018).

What is called IC50 is the concentration that inhibits the measured activity by half. The term inhibition denotes the drop in the measured response relative to a control, in per cent.

This experiment addresses T1, androgen receptor (AR) (Homo sapiens, UniProt P10275, T878A).
T1 sequence (P10275 1-920 T878A): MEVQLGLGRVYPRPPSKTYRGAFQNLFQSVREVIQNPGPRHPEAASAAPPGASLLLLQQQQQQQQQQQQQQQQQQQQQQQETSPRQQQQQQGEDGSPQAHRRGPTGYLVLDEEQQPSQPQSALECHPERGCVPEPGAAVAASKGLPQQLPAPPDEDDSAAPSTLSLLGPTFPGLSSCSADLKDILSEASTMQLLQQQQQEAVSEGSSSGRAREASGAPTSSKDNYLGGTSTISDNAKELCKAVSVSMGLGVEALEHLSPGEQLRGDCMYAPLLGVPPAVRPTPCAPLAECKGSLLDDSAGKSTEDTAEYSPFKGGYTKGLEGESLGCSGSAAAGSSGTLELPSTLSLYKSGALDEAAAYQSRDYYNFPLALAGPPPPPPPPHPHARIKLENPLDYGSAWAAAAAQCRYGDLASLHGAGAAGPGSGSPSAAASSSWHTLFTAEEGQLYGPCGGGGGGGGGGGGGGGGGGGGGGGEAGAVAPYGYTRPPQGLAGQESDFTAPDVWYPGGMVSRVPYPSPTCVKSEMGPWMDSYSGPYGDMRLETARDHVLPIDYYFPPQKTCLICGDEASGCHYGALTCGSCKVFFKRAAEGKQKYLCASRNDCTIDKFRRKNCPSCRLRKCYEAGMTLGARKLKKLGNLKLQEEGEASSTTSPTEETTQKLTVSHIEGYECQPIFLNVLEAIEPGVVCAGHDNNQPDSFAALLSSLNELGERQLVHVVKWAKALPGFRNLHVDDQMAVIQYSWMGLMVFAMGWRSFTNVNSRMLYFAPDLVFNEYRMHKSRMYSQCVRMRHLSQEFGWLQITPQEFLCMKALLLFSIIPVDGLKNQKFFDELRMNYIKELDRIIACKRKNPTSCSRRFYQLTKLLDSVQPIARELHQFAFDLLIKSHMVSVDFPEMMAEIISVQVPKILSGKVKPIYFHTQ
Kind of experiment: eGFP cellular AR transcription assay (LNCaP eGFP cells, LN-ARR2PB-eGFP). To be noted: for inhibition at 3 µM: LNCaP, read-out: % Inhibition (3 μM).

The mark [1] stands for this setting: eGFP IC50 (μM), LNCaP eGFP cells.

Like-named read-outs stand apart in the source and are kept apart here.

For the compound `Cc1cccn1-c1csc(N2CCOCC2)n1` [Compound 14410], for the setting “eGFP IC50 (μM), Series 1”, the IC50 came to 28.4 µM.

As to `c1ccn(-c2csc(N3CCOCC3)n2)c1` [Compound 14411], the “% Inhibition (3 μM)” value is 44.00%. For `COc1ccc(-c2nc(-c3ccccc3)cs2)cc1` [Compound 14419], the “% Inhibition (3 μM)” value amounted to 119.36%. The half-inhibitory concentration (IC50) (read-out: eGFP IC50) is 6.11 µM. With `Oc1ccc(-c2csc(-c3ccccc3)n2)cc1` [Compound 14420], the inhibition at 3 µM was found to be 125%. The same compound came in with a 50% inhibitory concentration (IC50) (eGFP IC50 (μM), Series 1) of 3.73 µM. Turning to `FC(F)(F)c1cccc(-c2csc(-c3ccncc3)n2)c1` [Compound 14421], the inhibition at 3 µM is 107%. This compound registered a half-maximal inhibitory concentration (IC50) (eGFP IC50 (μM), Series 1) of 4.61 µM.

For the compound `CC(=O)c1ccc(-c2ccccc2)s1` [Compound 14422], the inhibition at 3 µM worked out at 131%. Where the note is “eGFP IC50 (μM), Series 1”, this compound showed a 50% inhibitory concentration (IC50) of 2.26 µM.

On to `CS(=O)(=O)c1c(F)cccc1-c1csc(N2CCOCC2)n1` [Compound 14429], for which the IC50 (eGFP IC50 (μM), Series 1) worked out at 3.55 µM. On to `CC(C)Oc1c(F)cccc1-c1csc(N2CCOCC2)n1` [Compound 14430], for which the inhibition at 3 µM came to 106%. Moreover, half-maximal inhibition (eGFP IC50 (μM), Series 1) (IC50) was put at 5.27 µM. Under setting [1], `N#Cc1cc2ccccc2nc1N1CCOCC1` [Compound 14433] came in with a half-maximal inhibitory concentration (IC50) of 1.95 µM.

`Cc1cc(N2CCOCC2)nc2ccccc12` [Compound 14434]: the midpoint of inhibition under setting [1], the IC50, lay at 1.09 µM. As to `Clc1ccccc1-c1csc(N2CCOCC2)n1` [Compound 14437], the “% Inhibition (3 μM)” value was determined as 45.04%. On to `Oc1ccc(-c2ccc3ccccc3n2)cc1` [Compound 14440], for which the inhibition at 3 µM amounted to 8.65%. In addition, the IC50 under setting [1] came out at 9.48 µM. For the compound `COc1ccc(-c2csc(-c3c[nH]c4ccccc34)n2)cc1` [Compound 14443], the “% Inhibition (3 μM)” value is recorded as 25.15%. The same measure, in the same setting: the same measure for `Clc1cnccc1-c1csc(N2CCOCC2)n1` [Compound 14446]: 24%. Take `O=c1[nH]c(N2CCOCC2)cc2ccccc12` [Compound 14453]: the inhibition at 3 µM was 17.3%. Same read-out and setting: to `O=[N+]([O-])c1ccc2nc(N3CCOCC3)ccc2c1` [Compound 14454] belongs 0%.

For the compound `N#Cc1ccc(-c2csc(N3CCOCC3)n2)cc1` [Compound 14457], where the note is “3 µM”, the “% Inhibition (3 μM)” value was found to be 80%. The compound `Clc1scc(-c2csc(N3CCOCC3)n2)c1Cl` [Compound 14462] gave a half-maximal inhibitory concentration (IC50) (eGFP IC50 (μM), Series 1) of 0.11 µM. Still for that read-out and setting: the same measure for `CNc1cc(F)c(OC)c(-c2csc(N3CCOCC3)n2)c1` [Compound 14465]: 3.06 µM; for `Cc1sc(CO)c(-c2csc(N3CCOCC3)n2)c1C` [Compound 14466]: 0.4 µM; for `COc1c(F)cc(O)cc1-c1csc(N2CCOCC2)n1` [Compound 14467]: 3.7 µM. Consider `O=C1C(Cl)=C(N2CCOCC2)C(=O)N1c1ccccc1Cl` [Compound 14475], for which the “% Inhibition (3 μM)” value was found to be 8.89%. Regarding `O=C1C(Cl)=C(N2CCOCC2)C(=O)N1c1ccccc1` [Compound 14476], the “% Inhibition (3 μM)” value worked out at 9.79%.

`FC(F)(F)c1cccc(-c2csc(-c3cnccn3)n2)c1` [Compound 14486]: the “% Inhibition (3 μM)” value was 20.4%.

On to `CC1CN(c2cnc3ccccc3n2)CC(C)O1` (centres unmarked) [Compound 14487], for which the inhibition at 3 µM is 27%. Regarding `c1ccc2nc(N3CCCCC3)ccc2c1` [Compound 14495], the inhibition at 3 µM turned out to be 89.4%. This compound yielded a half-maximal inhibitory concentration (IC50) under setting [1] of 0.6 µM. Consider `O=C(O)c1csc(N2CCOCC2)n1` [Compound 14502], for which the inhibition at 3 µM was found to be 0%.

As to `c1ccc2c(c1)ncn2-c1csc(N2CCOCC2)n1` [Compound 14509], the IC50 (read-out: eGFP IC50) came out at 1.17 µM.
